In patent EP0237866A1, “Selective fungicidal use of asymmetric 2-pyridyl phosphoric acid esters” (priority 1986, dated 1987):

Legend:
[1] = test system: Venturia inaequalis; assay: Venturia test (apple) / protective; assay type: in vivo; details: apple plants, protective spray, 5 ppm active compound, evaluated 12 days after inoculation
From the text: Venturia-Test (Apfel) / protektiv
Lösungsmittel: 4,7 Gewichtsteile Aceton Emulgator: 0,3 Gewichtsteile Alkylarylpolyglykolether
(§1) Zur Herstellung einer zweckmäßigen Wirkstoffzubereitung vermischt man 1 Gewichtsteil Wirkstoff mit den angegebenen Mengen Lösungsmittel und Emulgator und verdünnt das Konzentrat mit Wasser auf die gewünschte Konzentration.
Zur Prüfung auf protektive Wirksamkeit bespritzt man junge Pflanzen mit der Wirkstoffzubereitung bis zur Tropfnässe. Nach Antrocknen des Spritzbelages werden die Pflanzen mit einer wäßrigen Konidiensuspension des Apfelschorferregers (Venturia inaequalis) inokuliert und verbleiben dann 1 Tag bei 20°C und 100 X relativer Luftfeuchtigkeit in einer Inkubationskabine.
Die Pflanzen werden dann im Gewächshaus bei 20 °C und einer relativen Luftfeuchtigkeit von ca. 70 % aufgestellt.
12 Tage nach der Inokulation erfolgt die Auswertung.

[2] = molecular target: T1, Cutinase (Fusarium vanettenii, UniProt P00590); assay: Cutinase inhibitor test; assay type: biochemical, Fusarium solani f.sp.pisi; details: p-Nitrophenylbutyrat as substrate, 30 min incubation at 30°C, phosphate buffer 0,1 M pH 8 + 0,3% Triton X-100; read-out: I50
T1 construct: Das Enzym Cutinase wird aus Kulturfiltrat von Fusarium solani f.sp.pisi nach Standardmethoden gereinigt; endogenous in cells; host or cells: Culture filtrate of Fusarium solani f.sp. pisi (enzyme secreted by the fungus and purified)
Procedure: Das Enzym Cutinase wird aus Kulturfiltrat von Fusarium solani f.sp.pisi nach Standardmethoden gereinigt und photometrisch mit p-Nitrophenylbutyrat als Substrat getestet (P.E. Kolattukudy, K.E. Espelie, C.L. Soliday (1981), Meth. Enzymol. 71, 652).
Die Inhibitor-Wirkung wird einer beschriebenen Methode folgend bestimmt (W. Köller, C.R. Allan, P.E. Kolattukudy (1982), Phytopathoiopy 72, 1425): Eine geeignete Menge Enzym wird zusammen mit dem Wirkstoff in gewünschter Konzentration in 1 ml Phosphatpuffer (0,1 M; pH 8) + 0,3% (w/v) Triton X-100 bei 30°C inkubiert. Nach 30 Minuten Inkubation wird die enzymatische Restaktivität bestimmt. Anhand einer Dosis-Wirkungs-Beziehung wird der I(50)-Wert (= diejenige Wirkstoff-Konzentration, die zu einer Inhibierung von 50 % führt) ermittelt.

[3] = test system: Erysiphe graminis f.sp.hordei; assay: Erysiphe test (barley) / protective; assay type: in vivo; details: evaluated 7 days after inoculation
From the text: Erysiphe-Test (Gerste) / protektiv
Lösungsmittel: 100 Gewichtsteile Dimethylformamid Emulgator: 0,25 Gewichtsteile Alkylarylpolyglykolether
as §1
Zur Prüfung auf protektive Wirksamkeit besprüht man junge Pflanzen mit der Wirkstoffzubereitung taufeucht. Nach Antrocknen des Spritzbelages werden die Pflanzen mit Sporen von Erysiphe graminis f.sp.hordei bestäubt.
Die Pflanzen werden in einem Gewächshaus bei einer Temperatur von ca. 20°C und einer relativen Luftfeuchtigkeit von ca. 80 % aufgestellt, um die Entwicklung von Mehltaupusteln zu begünstigen.
7 Tage nach der Inokulation erfolgt die Auswertung.

[4] = protective spray, 0,0025 Gew.-% in the spray liquor

T1 sequence (P00590 32-230): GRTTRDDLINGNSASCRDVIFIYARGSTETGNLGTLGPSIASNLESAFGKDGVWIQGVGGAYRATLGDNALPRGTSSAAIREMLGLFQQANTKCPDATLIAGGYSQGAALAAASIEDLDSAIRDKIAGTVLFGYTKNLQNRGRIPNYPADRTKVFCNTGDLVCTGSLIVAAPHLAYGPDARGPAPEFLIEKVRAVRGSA

SMILES | Befall in % bei einer Wirkstoffkonzentration von 5 ppm [1] [%] | Krankheits-befall in % der unbe-handelten Kontrolle [3, 4] | further results
CCCCOP(=O)(OC)Oc1nc(Cl)c(Cl)cc1Cl (centres unmarked) [Beispiel 4] | 5 |  | IC50 [2]: 36 nM
CCOP(=O)(OCC)Oc1nc(Cl)c(Cl)cc1Cl [A, 0,0-Diethyl-0-(3,5,6-trichlor-2-pyridyl)-phosphorsäureester, reference compound] | 74 |  | IC50 [2]: 190 nM; Krankheits-befall in % der unbe-handelten Kontrolle ([3]; protective spray, 0,005 Gew.-% in the spray liquor): 58,7 % der unbe-handelten Kontrolle
CCCCCCCCOP(=O)(OCC)Oc1nc(Cl)c(Cl)cc1Cl (centres unmarked) [Beispiel 3] | 19 |  | 
CCCOP(=O)(OC)Oc1nc(Cl)c(Cl)cc1Cl (centres unmarked) [Beispiel 12] |  |  | IC50 [2]: 39 nM
CCCCCCOP(=O)(OC)Oc1nc(Cl)c(Cl)cc1Cl (centres unmarked) [Beispiel 5] | 3 |  | 
CCCCOP(=O)(OCC)Oc1nc(Cl)c(Cl)cc1Cl (centres unmarked) [Beispiel 1, O-n-Butyl-O-ethyl-O-(3,5,6-trichlor-2-pyridyl)-phosphorsiureester] | 27 |  | 
CCCCCCOP(=O)(OC)Oc1cccc(Cl)n1 (centres unmarked) [Beispiel 7] |  | 37,5 % der unbe-handelten Kontrolle | 
CCCCCCOP(=O)(OC)Oc1ncc(Cl)cc1Cl (centres unmarked) [Beispiel 9] |  | 25,0 % der unbe-handelten Kontrolle | 
CCCCOP(=O)(OC)Oc1ncc(Cl)cc1Cl (centres unmarked) [Beispiel 10] |  | 12,5 % der unbe-handelten Kontrolle | 
CCCCOP(=O)(OC)Oc1cccc(Cl)n1 (centres unmarked) [Beispiel 8] |  | 37,5 % der unbe-handelten Kontrolle | 
CCCCCCOP(=O)(OCC)Oc1nc(Cl)c(Cl)cc1Cl (centres unmarked) [Beispiel 2] | 11 |  | 
